Measurements as given in ChEMBL document CHEMBL1156829 (Proc Natl Acad Sci U S A, 2008).
pEC50: −log10 of the molar value.

Legend:
Plasmodium falciparum [1] = experiment: NOVARTIS: Inhibition of Plasmodium falciparum W2 (drug-resistant) proliferation in erythrocyte-based infection assay; assay type: functional, organism-based; details: Plasmodium falciparum, W2; read-out: EC50
[2] = NOVARTIS: Cytotoxicity against human hepatocellular carcinoma cell line (Huh7); assay type: toxicity, cell-based, Huh-7; details: Huh7 cells (hepatocellular carcinoma cell line)
Plasmodium falciparum [3] = experiment: NOVARTIS: Inhibition of Plasmodium falciparum 3D7 (drug-susceptible) proliferation in erythrocyte-based infection assay; assay type: functional, organism-based; details: Plasmodium falciparum, 3D7

In the case of c1cncc(CCNc2nccn3c(-c4cccc5ccccc45)cnc23)c1, the pEC50 (Plasmodium falciparum [1]) was less than 5.90, the CC50 [2] was greater than 10000 nM and the pEC50 (Plasmodium falciparum [3]) was 5.91.

Cc1nc(N2CCC(C)CC2)c2c(C)c(C(=O)Nc3ccc(C(F)(F)F)cc3)sc2n1 showed a pEC50 (Plasmodium falciparum [1]) of 6.25, a CC50 [2] greater than 100000 nM and a pEC50 (Plasmodium falciparum [3]) of less than 4.90.

COc1cccc(NC(=O)N(Cc2ccccc2)C(C)c2nc3ccccc3c(=O)n2-c2cc(C)ccc2OC)c1 (stereo unspecified) gave a pEC50 (Plasmodium falciparum [1]) of 5.91, a CC50 [2] greater than 10000 nM and a pEC50 (Plasmodium falciparum [3]) of 5.91.

Cc1cccc[n+]1CCCCCCCCCC[n+]1ccccc1C gave a pEC50 (Plasmodium falciparum [1]) of 7.09, a CC50 [2] greater than 100000 nM and a pEC50 (Plasmodium falciparum [3]) of 6.99.

Compound c1cncc(-c2cc(NCCCN3CCOCC3)nc(-c3ccncc3)n2)c1 has a pEC50 (Plasmodium falciparum [1]) of 5.92, a CC50 [2] greater than 10000 nM and a pEC50 (Plasmodium falciparum [3]) of 5.97.

Work on CC[n+]1c(/C=C(C)/C=C2\Sc3ccccc3N2CCO)sc2ccccc21 yielded a pEC50 (Plasmodium falciparum [1]) of 5.78, a CC50 [2] greater than 10000 nM and a pEC50 (Plasmodium falciparum [3]) of less than 5.90.

CN(C)c1ccc(Nc2nc(NCC3CCCO3)c3ccccc3n2)cc1 (stereo unspecified) gave a pEC50 (Plasmodium falciparum [1]) of 6.09, a CC50 [2] of 11400 nM and a pEC50 (Plasmodium falciparum [3]) of 6.07.

CCc1ccc(NC(=O)CSc2nc(C)cc(C)c2C#N)cc1 showed a pEC50 (Plasmodium falciparum [1]) of less than 6.16, a CC50 [2] greater than 10000 nM and a pEC50 (Plasmodium falciparum [3]) of less than 5.90.

With CC(=NNC(=S)NN)c1ccccn1 the pEC50 (Plasmodium falciparum [1]) was 6.41, the CC50 [2] was greater than 10000 nM and the pEC50 (Plasmodium falciparum [3]) was 5.86.

In the case of COC(=O)c1ccnn(-c2ccccc2)c1=O, the pEC50 (Plasmodium falciparum [1]) was 6.50, the CC50 [2] was 12900 nM and the pEC50 (Plasmodium falciparum [3]) was less than 5.77.

With Cc1cccc(NC2=NC(N)=NC(C)(C)N2)c1 the pEC50 (Plasmodium falciparum [1]) was 6.51, the CC50 [2] was greater than 10000 nM and the pEC50 (Plasmodium falciparum [3]) was 7.24.

In the case of N/C(=N\C(=O)c1nc(Cl)c(N)nc1N)NCc1ccc(Cl)c(Cl)c1 [3',4' DICHLOROBENZAMIL], the pEC50 (Plasmodium falciparum [1]) was 6.55, the CC50 [2] was 4590 nM and the pEC50 (Plasmodium falciparum [3]) was 7.05.

c1ccc(CCNc2cccc3ccccc23)cc1 gave a pEC50 (Plasmodium falciparum [1]) greater than 8.12, a CC50 [2] greater than 10000 nM and a pEC50 (Plasmodium falciparum [3]) of 6.89.

O=S(=O)(NCCCCNc1ccnc2cc(Cl)ccc12)c1ccc(F)cc1 showed a pEC50 (Plasmodium falciparum [1]) of 6.15, a CC50 [2] greater than 10000 nM and a pEC50 (Plasmodium falciparum [3]) of 6.47.

CN(C)CCN1CCN(c2cncc(-c3cccnc3)n2)CC1 gave a pEC50 (Plasmodium falciparum [1]) of less than 5.90, a CC50 [2] greater than 10000 nM and a pEC50 (Plasmodium falciparum [3]) of less than 5.95.

CCOc1ccc2c(c1)sc(=NC(=O)Nc1ccc(OC)cc1)n2C showed a pEC50 (Plasmodium falciparum [1]) of 6.00, a CC50 [2] of 17800 nM and a pEC50 (Plasmodium falciparum [3]) of less than 5.08.

In the case of COc1ccc(CC(=O)Nc2ccc(S(=O)(=O)N3CCCCCC3)cc2)cc1, the pEC50 (Plasmodium falciparum [1]) was 5.01, the CC50 [2] was greater than 100000 nM and the pEC50 (Plasmodium falciparum [3]) was less than 4.90.

For O=C(C1CCC1)N1CCN(c2ccccn2)CC1, the pEC50 (Plasmodium falciparum [1]) was less than 6.04, the CC50 [2] was greater than 10000 nM and the pEC50 (Plasmodium falciparum [3]) was less than 5.90.

For CCOc1ccc(CN(CCC(c2ccccc2)c2ccccc2)C(=O)Nc2ccccc2C)cc1, the pEC50 (Plasmodium falciparum [1]) was 5.73, the CC50 [2] was greater than 10000 nM and the pEC50 (Plasmodium falciparum [3]) was less than 5.87.

In the case of Cc1cc(Nc2cccc([N+](=O)[O-])c2)nc2cc(O)ccc12, the pEC50 (Plasmodium falciparum [1]) was 7.12, the CC50 [2] was 36300 nM and the pEC50 (Plasmodium falciparum [3]) was 6.17.

Compound C=CC1CN2CCC1CC2[C@@H](OC(=O)c1ccc(C(C)(C)C)cc1)c1ccnc2ccc(OC)cc12 (stereo partly specified) has a pEC50 (Plasmodium falciparum [1]) of 6.99, a CC50 [2] of 72400 nM and a pEC50 (Plasmodium falciparum [3]) of 7.59.

COc1ccc(C2=Nc3cc(C(=O)NCCN4CCOCC4)ccc3CN2C(C)C)cc1 gave a pEC50 (Plasmodium falciparum [1]) of 5.82, a CC50 [2] greater than 100000 nM and a pEC50 (Plasmodium falciparum [3]) of 5.28.

For O=C(O)c1ccc(C=NNc2ccc([N+](=O)[O-])cc2)cc1, the pEC50 (Plasmodium falciparum [1]) was less than 5.90, the CC50 [2] was greater than 10000 nM and the pEC50 (Plasmodium falciparum [3]) was less than 5.94.

Oc1ccc2ccccc2c1CNc1nc2ccccc2[nH]1 showed a pEC50 (Plasmodium falciparum [1]) of 6.35, a CC50 [2] of 14300 nM and a pEC50 (Plasmodium falciparum [3]) of 6.19.

O=C(Nc1nc(-c2ccccc2)cs1)c1ccccc1O gave a pEC50 (Plasmodium falciparum [1]) of 6.19, a CC50 [2] of 24300 nM and a pEC50 (Plasmodium falciparum [3]) of 6.00.

With CCc1cc(=O)n(C)c(SC(CC)C(=O)Nc2ccc(F)cc2)n1 (stereo unspecified) the pEC50 (Plasmodium falciparum [1]) was 6.42, the CC50 [2] was greater than 100000 nM and the pEC50 (Plasmodium falciparum [3]) was 6.32.

Work on CCCCc1nc(CN2CCC3(CC2)C(=O)N(CCc2ccccc2)C(=O)N3C)c[nH]1 yielded a pEC50 (Plasmodium falciparum [1]) of 5.36, a CC50 [2] greater than 100000 nM and a pEC50 (Plasmodium falciparum [3]) of less than 4.92.

With COc1ccccc1-n1c(C(C)N(C)C(=O)Nc2ccccc2F)nc2ccccc2c1=O (stereo unspecified) the pEC50 (Plasmodium falciparum [1]) was 7.21, the CC50 [2] was greater than 12400 nM and the pEC50 (Plasmodium falciparum [3]) was 6.79.

Compound C=CCn1c2cc(C)sc2c2cnn(CC(=O)N3CC(C)CC(C)C3)c(=O)c21 (stereo unspecified) has a pEC50 (Plasmodium falciparum [1]) of less than 6.07, a CC50 [2] greater than 10000 nM and a pEC50 (Plasmodium falciparum [3]) of less than 5.90.

In the case of O=C1NN=C2C1=NC1(CCCCC1)Cc1ccccc12, the pEC50 (Plasmodium falciparum [1]) was 6.42, the CC50 [2] was 3900 nM and the pEC50 (Plasmodium falciparum [3]) was 6.49.

For CC1(C)N=C(N)N=C(N)N1c1ccccc1, the pEC50 (Plasmodium falciparum [1]) was 6.01, the CC50 [2] was greater than 83700 nM and the pEC50 (Plasmodium falciparum [3]) was 6.76.

Work on O=C(O)CS(=O)(=O)c1ccc(C(=O)NCC(c2cccnc2)N2CCOCC2)cn1 (stereo unspecified) yielded a pEC50 (Plasmodium falciparum [1]) of 6.88, a CC50 [2] greater than 10000 nM and a pEC50 (Plasmodium falciparum [3]) of less than 6.06.

In the case of CN(C)CCNc1cc(-c2ccc3ccccc3c2)nc2ccccc12, the pEC50 (Plasmodium falciparum [1]) was 6.14, the CC50 [2] was greater than 100000 nM and the pEC50 (Plasmodium falciparum [3]) was 6.09.

In the case of O=C(Nc1ccc(-c2nc3ccccc3[nH]2)cc1)c1ccc(-c2ccc(Cl)cc2)o1, the pEC50 (Plasmodium falciparum [1]) was 6.35, the CC50 [2] was 16600 nM and the pEC50 (Plasmodium falciparum [3]) was 6.72.

In the case of CCCCCCCn1c2c(c(=N)c3ccccc31)CCC2, the pEC50 (Plasmodium falciparum [1]) was 6.64, the CC50 [2] was 3860 nM and the pEC50 (Plasmodium falciparum [3]) was 6.56.

CCN1CCN(c2cc(C)c3cc(NC(=O)/C=C/c4ccc(OC)cc4)ccc3n2)CC1 gave a pEC50 (Plasmodium falciparum [1]) of 6.12, a CC50 [2] greater than 10400 nM and a pEC50 (Plasmodium falciparum [3]) of 6.04.

For CN1CCc2c(sc3nc(SCC(=O)NCCc4ccccc4)n(-c4ccc(Cl)cc4)c(=O)c23)C1, the pEC50 (Plasmodium falciparum [1]) was 5.72, the CC50 [2] was 68500 nM and the pEC50 (Plasmodium falciparum [3]) was 5.88.

COc1ccc2nc(C)cc(Nc3ccc(Oc4ccc(Cl)cc4)c(Cl)c3)c2c1 gave a pEC50 (Plasmodium falciparum [1]) of 6.24, a CC50 [2] of 9340 nM and a pEC50 (Plasmodium falciparum [3]) of 6.77.

CC1=CC(=C(C#N)c2nc3ccccc3s2)C=C(C)N1CC1CCCO1 (stereo unspecified) showed a pEC50 (Plasmodium falciparum [1]) of 6.17, a CC50 [2] greater than 100000 nM and a pEC50 (Plasmodium falciparum [3]) of 6.39.

Compound CN1CCCC(CNC(=O)c2cnn(-c3ncc4c(n3)-c3ccccc3SC4)c2C2CC2)C1 (stereo unspecified) has a pEC50 (Plasmodium falciparum [1]) of 5.96, a CC50 [2] greater than 10000 nM and a pEC50 (Plasmodium falciparum [3]) of 6.01.

CCCCN(CCCC)S(=O)(=O)c1nc(C)c(Cl)c(C)c1C#N showed a pEC50 (Plasmodium falciparum [1]) of less than 4.90, a CC50 [2] greater than 100000 nM and a pEC50 (Plasmodium falciparum [3]) of 5.51.

O=C(N1CCCCC1)n1nnc2ccccc21 showed a pEC50 (Plasmodium falciparum [1]) of 6.40, a CC50 [2] greater than 100000 nM and a pEC50 (Plasmodium falciparum [3]) of 5.88.

CCc1ccc(NC(=O)c2ccc(F)c(S(=O)(=O)NC3CCCC(C)C3C)c2)cc1 (stereo unspecified) gave a pEC50 (Plasmodium falciparum [1]) of 6.67, a CC50 [2] of 66000 nM and a pEC50 (Plasmodium falciparum [3]) of 5.87.

CC(=O)Oc1ccccc1-c1nc2ccccn2c1NC(C)(C)CC(C)(C)C showed a pEC50 (Plasmodium falciparum [1]) of 7.44, a CC50 [2] greater than 9440 nM and a pEC50 (Plasmodium falciparum [3]) of 6.31.

For CC(Nc1ccccc1)C(=O)Nc1cc(C(F)(F)F)ccc1Cl (stereo unspecified), the pEC50 (Plasmodium falciparum [1]) was 5.89, the CC50 [2] was 71400 nM and the pEC50 (Plasmodium falciparum [3]) was 5.91.

For S=C(NCc1ccco1)NC1CC2CCC(C1)N2Cc1ccccc1 (stereo unspecified), the pEC50 (Plasmodium falciparum [1]) was 5.65, the CC50 [2] was greater than 100000 nM and the pEC50 (Plasmodium falciparum [3]) was 6.06.

In the case of OC1(c2cccc3ccccc23)CCN(Cc2ccccc2)C1 (stereo unspecified), the pEC50 (Plasmodium falciparum [1]) was 6.83, the CC50 [2] was 23100 nM and the pEC50 (Plasmodium falciparum [3]) was 6.34.

Work on N#Cc1c(N)nc2sc(C(=O)Nc3ccc(Br)cc3)c(N)c2c1-c1ccccc1 yielded a pEC50 (Plasmodium falciparum [1]) of 6.12, a CC50 [2] greater than 100000 nM and a pEC50 (Plasmodium falciparum [3]) of 5.09.

For Cc1nc(-c2nc3c(s2)CN(C(=O)COc2ccc(Cl)cc2)CC3)cs1, the pEC50 (Plasmodium falciparum [1]) was 5.53, the CC50 [2] was greater than 100000 nM and the pEC50 (Plasmodium falciparum [3]) was less than 4.97.

Work on CC(=O)Nc1c(C)cc(Cl)cc1Cl yielded a pEC50 (Plasmodium falciparum [1]) of 6.18, a CC50 [2] greater than 10000 nM and a pEC50 (Plasmodium falciparum [3]) of 5.84.

COc1cccc(CCN2Cc3ccc(C(=O)NC(C)C)cc3N=C2c2ccc(C)cc2)c1 gave a pEC50 (Plasmodium falciparum [1]) of 6.17, a CC50 [2] greater than 10000 nM and a pEC50 (Plasmodium falciparum [3]) of 6.03.

In the case of COc1ccc(CN(Cc2cc3cccc(C)c3nc2N2CCCC(O)C2)C(=O)c2ccc(OC)c(OC)c2)cc1 (stereo unspecified), the pEC50 (Plasmodium falciparum [1]) was 5.92, the CC50 [2] was greater than 100000 nM and the pEC50 (Plasmodium falciparum [3]) was 5.85.
